In patent US5814600A, “Method and composition for treatment of insulin requiring mammals” (Amylin Pharmaceuticals Inc., priority 1994, dated 1998):
Like-named read-outs stand apart in the source and are kept apart here.

Key:
rat soleus muscle = format: cell-based
Procedure: Male Harlan Sprague Dawley rats of approximately 200 g mass were used in order to maintain soleus muscle mass less than 40 mg. The animals were fasted for 4 hours prior to sacrifice by decapitation. The skin was stripped from the lower limb which was then pinned out on cork board. The tendo achilles was cut just above os […]. gastrocnemius reflected out from the posterior aspect of the tibia. M. soleus, a small […], 0.55 mm thick flat muscle on the bone surface of m. gastrocnemius was then stripped clear and the perimysium cleaned off using fine scissors and forceps. M. soleus was then split into equal parts using a blade passed antero-posteriorly through the belly of the muscle to obtain a total of 4 muscle strips from each animal. After dissecting the muscle from the animal, it was kept for a short period in physiological saline. The muscle was not held under tension, as reported in other methodologies since in our hands this had no demonstrable effect on the insulin-sensitivity of radioglucose incorporation into glycogen. Muscles were added to 50 mL Erlenmeyer flasks containing 10 mL of a pregassed Krebs-Ringer bicarbonate buffer containing (mM) NaCl 118.5; KCl 5.94; CaCl2 2.54; MgSO4 1.19; KH2 PO4 1.19; NaHCO3 25; glucose 5.5; and recombinant human insulin (Humulin-R, Eli Lilly, Ind.) and either synthetic rat (Bachem, Torrance, Calif. Lot# ZG485) or synthetic human amylin (Bachem, Torrance, Calif. Lot# ZH144) as detailed below. Methods used to determine the nature and purity of rat and human amylin included quantitative amino acid analysis, gas phase amino acid sequencing, reverse phase HPLC and fast-atom-bombardment mass spectrometry. […] Incorporation of mercury into rat amylin may be a feature of many commercially available batches that have already been used in published studies. Since the peptide was bioactive, its action in muscle was expected to at least qualitatively mimic that of true rat amylin. The mercuric method of cyclization was not used in the synthesis of human amylin, which is found by electrospray ionization mass spectrometry and atomic absorption spectroscopy to be mercury-free. Muscles were assigned to different flasks so that the four muscle pieces from each animal were evenly distributed among the different assay conditions. The incubation media were gassed by gently blowing carbogen (95% O2, 5% CO2) over the surface while it was continuously agitated at 37° C. in an oscillating water bath. pH of gassed media at 37° C. was verified as being between 7.1 and 7.4. After a half-hour preincubation, 0.5 μCi of [U-^14 C]-glucose was added to each flask for a further 60 minutes. Each muscle piece was then rapidly removed, trimmed of tendons, blotted, frozen in liquid N2, weighed and then stored at […] for subsequent determination of ^14 C-glycogen. The incubation medium was also frozen for subsequent analysis. The concentration of human amylin present in the medium at the end of the incubation was determined by radioimmunoassay in surfactant-containing buffer. For both human and rat amylin, the actual mass added to the incubation medium was determined by quantitative amino-acid analysis. Each frozen muscle specimen was placed in a vial with 1 mL 60% potassium hydroxide (wt/vol) and digested at 70° C. for 45 minutes under intermittent vigorous agitation. Dissolved glycogen was precipitated onto the walls of the vial by addition of 3 mL absolute ethanol and overnight cooling at -20° C. After centrifugation for 30 minutes at 2000 x-- g, the supernatant was gently aspirated, the glycogen was again washed with ethanol and centrifuged, the ethanol aspirated and the precipitate dried under vacuum. It was important to evaporate all ethanol to avoid quenching during scintillation counting. The remaining glycogen was redissolved in 1 mL water and 4 mL scintillation fluid and counted for ^14 C. […]

[1] = test system: patients with juvenile-onset diabetes; assay: 14-day clinical study: adverse events; format: in vivo, human
Excerpt: In a 14-day double-blind, placebo controlled clinical study, for example, patients with juvenile-onset diabetes who continued their usual insulin therapy and self-injected tripro-amylin three times daily had lower average blood glucose levels after a test meal than did patients who received insulin and placebo. […] See also Table 2 below. […] These thrice-daily doses of tripro-amylin reflect per day dosages of, respectively, 90, 300, and 900 micrograms per patient. For a patient of average weight, about 70 kg, these reflect doses of 1.3 μg/kg/day, 4.3 μg/kg/day, and 12.9 μg/kg/day. An average per day insulin dose is about 50 units, or 2000 micrograms.
The only adverse events which led a limited number of patients to discontinue the study were gastrointestinal side effects, mainly nausea, which were more frequent only in those patients receiving higher doses of drug. About 20% of patients in the mid- and high-dose groups who reported nausea also experienced vomiting on one or more occasions.

[2] = test system: patients with juvenile-onset diabetes; assay: 14-day clinical study: insulin challenge to induce hypoglycemia; format: in vivo, human; settings: after overnight fast, after 14 days of therapy
Excerpt: Following an overnight fast, patients in the 14-day study were challenged with insulin twice: prior to the start of dosing, and after 14 days of placebo or tripro-amylin therapy. The insulin challenge was designed to pharmacologically induce hypoglycemia in a controlled and reproducible manner.

[3] = test system: streptozotocin-diabetic rats; assay: Liver glycogen in insulin-treated streptozotocin diabetic rats, daily s.c. amylin replacement; format: in vivo, rat; settings: STZ diabetic rats, insulin replacement only
Procedure: There were 68 male Harlan Sprague Dawley rats (mass 301±3 g) in 8 treatment groups. Animals were housed at 22.7±0.8° C. in a 12:12 hour light:dark cycle (experiments being performed during the light cycle) and fed and watered ad libitum (Diet LM-485, Teklad, Madison, Wis.). The rats were sacrificed for harvesting of livers 4 to 5 hours into the light cycle.
Animals were injected with streptozotocin (Sigma Chemical Company, St Louis, Mo.: Sigma 50130) dissolved in water in a dose of 65 mg/kg into the lateral tail vein. […] Maintaining diabetic rats in this metabolic state optimizes survival. Following one week of established diabetes, animals received once daily s.c. injections of amylin vehicle (water for injection) for 5 days given at the time of the insulin injection.
These animals were treated identically to those in group 1 except that the daily subcutaneous injection contained 3 μg (n=5); 10 μg (n=12); 30 μg (n=5); 100 μg (n=5) or 300 μg (n=5) of rat amylin (Bachem lot# WG485^2/). The bioactivity of the peptide used in these experiments was first verified by bioassay, using inhibition of insulin-stimulated radioglucose incorporation into glycogen in the isolated stripped rat soleus muscle. […] The insulin dose in each of the groups of diabetic animals averaged 1.67 U/animal/day. There were no other observable differences in the required management of the different groups.
These animals were derived from the same stock and housed under the same conditions for the same time as those in groups 1-6, but were given no injections. 24 hours after the fifth daily injection of amylin or water (or an equivalent time after admission to the vivarium in the case of group 7 rats), the non-fasted rats were killed by decapitation and the livers immediately removed and frozen in liquid N2, weighed and stored for subsequent determination of glycogen concentration.
Whole livers were powdered while frozen. Approximately 200 mg of powder was further homogenized in 1.0 mL of 0.6M perchloric acid to denature enzymes. 200 μL of the homogenate was neutralized with 0.5 volumes of 1.0M KHCO3 in either of two acetate buffer solutions, one containing 2.0 mL of 200 mM acetate (pH4.8), the other containing the same but with 18.5 U/mL of amyloglucosidase (EC5 3.2.1.3, from Aspergillus nicer, Sigma A3423, Sigma Chemical Company, St Louis, Mo.) added. Following at least 20 minutes incubation at 23° C., the supernatants were assayed for glucose in an analyzer using D-glucose oxidase immobilized enzyme chemistry (Analyzer model 2300-STAT, YSI, Yellow Springs, Ohio). Purified rabbit liver glycogen (Sigma G8876) used as a standard indicated 98±4% recovery of dissolved glycogen and linearity within the range of observed liver glycogen concentrations (r=0.9994). All reagents were of analytical grade or better.
Statistical comparisons were by Student's t-test routines contained in the SYSTAT system (Systat, Evanston, Ill.). All results are reported as means ± standard error of the mean.

[4] = 30 micrograms 3 times daily, 18 patients starting study
[5] = 100 micrograms 3 times daily, 23 patients starting study
[6] = 300 micrograms 3 times daily, 21 patients starting study

CC[C@H](C)[C@H](NC(=O)[C@H](C)NC(=O)CNC(=O)[C@H](Cc1ccccc1)NC(=O)[C@H](CC(N)=O)NC(=O)[C@H](CC(N)=O)NC(=O)[C@H](CO)NC(=O)[C@H](CO)NC(=O)[C@H](Cc1c[nH]cn1)NC(=O)[C@@H](NC(=O)[C@H](CC(C)C)NC(=O)[C@H](Cc1ccccc1)NC(=O)[C@H](CC(N)=O)NC(=O)[C@H](C)NC(=O)[C@H](CC(C)C)NC(=O)[C@H](CCCNC(=N)N)NC(=O)[C@H](CCC(N)=O)NC(=O)[C@@H](NC(=O)[C@H](C)NC(=O)[C@@H]1CSSC[C@H](NC(=O)[C@@H](N)CCCCN)C(=O)N[C@@H](CC(N)=O)C(=O)N[C@@H]([C@@H](C)O)C(=O)N[C@@H](C)C(=O)N[C@@H]([C@@H](C)O)C(=O)N1)[C@@H](C)O)C(C)C)C(=O)N[C@@H](CC(C)C)C(=O)N[C@@H](CO)C(=O)N[C@@H](CO)C(=O)N[C@H](C(=O)N[C@@H](CC(N)=O)C(=O)N[C@H](C(=O)NCC(=O)N[C@@H](CO)C(=O)N[C@@H](CC(N)=O)C(=O)N[C@H](C(=O)N[C@@H](Cc1ccc(O)cc1)C(N)=O)[C@@H](C)O)C(C)C)[C@@H](C)O [human amylin]
EC50 (rat soleus muscle; 4 h): 0.438 nM

CC[C@H](C)[C@H](NC(=O)[C@@H]1CCCN1C(=O)CNC(=O)[C@H](Cc1ccccc1)NC(=O)[C@H](CC(N)=O)NC(=O)[C@H](CC(N)=O)NC(=O)[C@H](CO)NC(=O)[C@H](CO)NC(=O)[C@H](Cc1c[nH]cn1)NC(=O)[C@@H](NC(=O)[C@H](CC(C)C)NC(=O)[C@H](Cc1ccccc1)NC(=O)[C@H](CC(N)=O)NC(=O)[C@H](C)NC(=O)[C@H](CC(C)C)NC(=O)[C@H](CCCNC(=N)N)NC(=O)[C@H](CCC(N)=O)NC(=O)[C@@H](NC(=O)[C@H](C)NC(=O)[C@@H]1CSSC[C@H](NC(=O)[C@@H](N)CCCCN)C(=O)N[C@@H](CC(N)=O)C(=O)N[C@@H]([C@@H](C)O)C(=O)N[C@@H](C)C(=O)N[C@@H]([C@@H](C)O)C(=O)N1)[C@@H](C)O)C(C)C)C(=O)N[C@@H](CC(C)C)C(=O)N1CCC[C@H]1C(=O)N1CCC[C@H]1C(=O)N[C@H](C(=O)N[C@@H](CC(N)=O)C(=O)N[C@H](C(=O)NCC(=O)N[C@@H](CO)C(=O)N[C@@H](CC(N)=O)C(=O)N[C@H](C(=O)N[C@@H](Cc1ccc(O)cc1)C(N)=O)[C@@H](C)O)C(C)C)[C@@H](C)O [tripro-amylin, ^25,28,29 Pro-human-amylin]
side effect profile, measures of safety ([1]; 14-day tests): all measures of safety were satisfactory | Patients reporting any gastrointestinal symptoms [1, 4]: 5 | Patients reporting nausea for more than 7 days [1, 4]: 1 | Patients reporting other events resulting in early discontinuation [1, 4]: 0 | Patients who withdrew from the study with nausea [1, 4]: 1 | Patients reporting any gastrointestinal symptoms [1, 5]: 13 | Patients reporting nausea for more than 7 days [1, 5]: 8 | Patients reporting other events resulting in early discontinuation [1, 5]: 0 | Patients who withdrew from the study with nausea [1, 5]: 1 | Patients reporting any gastrointestinal symptoms [1, 6]: 20 | Patients reporting nausea for more than 7 days [1, 6]: 11 | Patients reporting other events resulting in early discontinuation [1, 6]: 0 | Patients who withdrew from the study with nausea [1, 6]: 8 | patients who reported nausea and also experienced vomiting on one or more occasions ([1]; mid- and high-dose groups): About 20% | glucose response to insulin challenge compared to placebo group [2]: did not measurably alter the glucose reponse

insulin: recombinant human insulin (Humulin-R, Eli Lilly) in soleus assay; Humulin-Ultralente for daily treatment of diabetic rats
Insulin dose response: Maximal response, Mean (rat soleus muscle; [amylin] 0 nM (nominal)): 4.09 μmol/g wet tissue/hr | EC50 (rat soleus muscle; [amylin] 0 nM (nominal), read-out: Insulin dose response: EC50, Mean ± log SE (converted)): 1.16 ± 0.1 nM | Insulin dose response: Maximal response, Mean (rat soleus muscle; [amylin] 3 nM (nominal)): 3.45 μmol/g wet tissue/hr | EC50 (rat soleus muscle; [amylin] 3 nM (nominal), read-out: Insulin dose response: EC50, Mean ± log SE (converted)): 0.78 ± 0.12 nM | Insulin dose response: Maximal response, Mean (rat soleus muscle; [amylin] 10 nM (nominal)): 3.12 μmol/g wet tissue/hr | EC50 (rat soleus muscle; [amylin] 10 nM (nominal), read-out: Insulin dose response: EC50, Mean ± log SE (converted)): 1.52 ± 0.15 nM | Insulin dose response: Maximal response, Mean (rat soleus muscle; [amylin] 30 nM (nominal)): 2.13 μmol/g wet tissue/hr | EC50 (rat soleus muscle; [amylin] 30 nM (nominal), read-out: Insulin dose response: EC50, Mean ± log SE (converted)): 1.33 ± 0.2 nM | Insulin dose response: Maximal response, Mean (rat soleus muscle; [amylin] 100 nM (nominal)): 1.15 μmol/g wet tissue/hr | Insulin dose response: Maximal response, Mean (rat soleus muscle; [amylin] 300 nM (nominal)): 0.93 μmol/g wet tissue/hr | EC50 (rat soleus muscle; absence of amylin, pooled from 7 assays, ±0.07 log units, read-out: EC50 of the insulin response): 1.05 nM | increment in rate of glycogen labelling (rat soleus muscle; insulin dose response in absence of amylin, pooled from 7 assays): 3.7 fold | decrease in liver glycogen compared to normal rats ([3]; fed state): ~35% | liver glycogen concentration ([3]; normal rats 8.6 mg/g): 5.6 mg/g
